In this test the target is T1, rat MCH 1 receptor (rMCH1R) (Rattus norvegicus, UniProt P97639).
T1 construct: expressed in transfected cells; host or cells: HEK 293 (membranes)
The test is described as follows: 125I-MCH ligand binding assay, rMCH. The following applies: HEK 293 membranes, 0.2 nM 125I native-MCH, read-out: IC50 in the rMCH binding assay. On the procedure: Human embryonic kidney cells (293 total) expressing either human, rat, or mouse MCH receptor were harvested from 150 mm culture dishes using PBS. Spinning at 1500 rpm for 2 minutes initially pelleted cells. The resulting pellet was then homogenized in 15 mL ice cold sucrose buffer (25 mM HEPES, 0.3 M sucrose, pH 7.4) with a motorized, glass fitted, Teflon® homogenizer. The homogenate was centrifuged at 48,000×g at 4° C. for 10 minutes, resuspended in 15 mL assay buffer (25 mM HEPES, 10 mM mgCl2, 0.2% BSA, 0.1 mg/mL STI, 0.1 mg/mL Pefabloc®, 1 μM Phosphoramidon, pH 7.4) with a Tissue-Tearor® (Biospec Products) and centrifuged again at 48,000×g for 10 minutes. The pellet was homogenized for a third time in 15 mL assay buffer using the Tissue-Tearor® and again centrifuged at 48,000×g for 10 minutes. The resulting pellet was resuspended in assay buffer at a wet weight concentration of 10-20 mg/mL.
Binding assays were determined as described below using mouse, rat or human MCH 1 receptors (mMCH1R, rMCH1R, and hMCH1R, respectively) expressed in HEK 293; IC50 values were calculated.
Binding assays were performed in 96-well U-bottom plates. Membranes (100 μg tissue) were incubated at 30° C. for 90 minutes in assay buffer with various peptides in the presence of 0.2 nM ^125I native-MCH (Perkin-Elmer Life Sciences, Boston, Mass.) in 100 μL total volume. Non-specific binding was assessed in the presence of 1 μM cold native-MCH. The reaction was terminated by rapid filtration through Unfilter-96 GF/C glass fiber filter plates (FilterMate® 196 Harvester, Packard Instrument Co., Meriden, Conn.) pre-soaked in PBS/0.5% BSA, followed by three washes with 300 μL ice-cold water. Bound radioactivity was determined using a TopCount® microplate scintillation and luminescence counter (Packard Instrument Co., Meriden, Conn.). Nonlinear regression analyses of drug concentration curves were performed using GraphPad Prism® (GraphPad Software, Inc., San Diego, Calif.).

Read-outs that look alike come from different tables or passages of the source.

T1 sequence (P97639 whole entry): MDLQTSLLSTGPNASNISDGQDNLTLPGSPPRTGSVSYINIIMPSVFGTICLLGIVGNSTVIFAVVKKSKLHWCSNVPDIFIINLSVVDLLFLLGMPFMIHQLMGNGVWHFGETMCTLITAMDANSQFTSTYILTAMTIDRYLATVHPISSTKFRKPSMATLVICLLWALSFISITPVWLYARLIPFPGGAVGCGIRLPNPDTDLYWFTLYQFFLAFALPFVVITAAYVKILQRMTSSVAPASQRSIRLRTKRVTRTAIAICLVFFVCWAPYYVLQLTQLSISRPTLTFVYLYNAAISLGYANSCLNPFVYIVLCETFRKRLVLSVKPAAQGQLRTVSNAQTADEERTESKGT

Take `C(=C\c1ccccc1)/CN1CCN([C@@H](c2ccccc2)c2nnnn2C2CCN(Cc3ccccc3)CC2)CC1` (racemic) [Compound 28, 1-{[1-(1-benzylpiperidin-4-yl)-1H-tetrazol-5-yl]phenylmethyl}-4-(3-phenylallyl)piperazine]: the half-inhibitory concentration (IC50) (100 μM or less list) is at most 100 µM.

With `Cc1cccc(C)c1-n1nnnc1[C@H](c1ccccn1)N1CCN(C/C=C/c2ccccc2)CC1` (racemic) [Compound 75, 1-{[1-(2,6-dimethylphenyl)-1H-tetrazol-5-yl]pyridin-2-ylmethyl}-4-(3-phenylallyl)piperazine], the half-inhibitory concentration (IC50) (100 μM or less list) is at most 100 µM.

On to `Cc1cccc(C)c1-n1nnnc1[C@H](c1cccc(C(F)(F)F)c1)N1CCN(Cc2ccc3c(c2)OCO3)CC1` (racemic) [Compound 156, 1-benzo[1,3]dioxol-5-ylmethyl-4-[[1-(2,6-dimethylphenyl)-1H-tetrazol-5-yl]-(3-trifluoromethylphenyl)methyl]piperazine], for which the half-maximal inhibitory concentration (IC50) (100 μM or less list) was at most 100 µM.

In the case of `COc1cc(/C=C/CN2CCN([C@@H](c3cccc(C(F)(F)F)c3)c3nnnn3-c3c(C)cccc3C)CC2)ccc1O` (racemic) [Compound 163, 4-(3-{4-[[1-(2,6-dimethylphenyl)-1H-tetrazol-5-yl]-(3-trifluoromethylphenyl)methyl]piperazin-1-yl}propenyl)-2-methoxyphenol], the 50% inhibitory concentration (IC50) (100 nM or less list) was at most 0.1 µM and the IC50 (100 μM or less list) is at most 100 µM.

Regarding `Cc1cccc(C)c1-n1nnnc1[C@H](c1ccc(C(C)C)cc1)N1CCN(C/C=C/c2ccccc2)CC1` (racemic) [Compound 125, 1-[[1-(2,6-dimethylphenyl)-1H-tetrazol-5-yl]-(4-isopropylphenyl)methyl}-4-(3-phenylallyl)piperazine], the IC50 (100 μM or less list) is at most 100 µM.

For the compound `Cc1cccc(C)c1-n1nnnc1[C@H](c1cccc(Cl)c1)N1CCN(C/C=C/c2ccccc2)CC1` (racemic) [Compound 140, 1-{(3-chlorophenyl)-[1-(2,6-dimethylphenyl)-1H-tetrazol-5-yl]methyl}-4-(3-phenylallyl)piperazine], the IC50 was at most 0.1 µM (100 nM or less list) and at most 100 µM (100 μM or less list).

Consider `CCN([C@@H]1CCN(Cc2ccccc2)C1)[C@@H](c1cccc(C(F)(F)F)c1)c1nnnn1-c1c(C)cccc1C` (racemic) [Compound 162, (1-benzylpyrrolidin-3-yl)-[[1-(2,6-dimethylphenyl)-1H-tetrazol-5-yl]-(3-trifluoromethylphenyl)methyl]ethylamine], for which the IC50 (100 μM or less list) was at most 100 µM.

`COc1cc([C@@H](c2nnnn2-c2c(C)cccc2C)N2CCN(C/C=C/c3ccccc3)CC2)ccc1OCc1ccccc1` (racemic) [Compound 129, 1-{(4-benzyloxy-3-methoxyphenyl)-[1-(2,6-dimethylphenyl)-1H-tetrazol-5-yl]methyl}-4-(3-phenylallyl)piperazine]: the IC50 runs as follows: (100 nM or less list) at most 0.1 µM; (100 μM or less list) at most 100 µM.

Consider `Cc1cccc(C)c1-n1nnnc1[C@H](c1cccc([N+](=O)[O-])c1)N1CCN(C/C=C/c2ccccc2)CC1` (racemic) [Compound 138, 1-[[1-(2,6-dimethylphenyl)-1H-tetrazol-5-yl]-(3-nitrophenyl)methyl]-4-(3-phenylallyl)piperazine], for which the IC50 is, setting by setting: (100 nM or less list) at most 0.1 µM; (100 μM or less list) at most 100 µM.

`CC(C)(C)OC(=O)Cn1nnnc1[C@H](c1ccccc1)N1CCN(C/C=C/c2ccccc2)CC1` (racemic) [Compound 24, (5-{phenyl-[4-(3-phenylallyl)piperazin-1-yl]methyl}tetrazol-1-yl)acetic acid tert-butyl ester]: for the setting “100 μM or less list”, the IC50 was at most 100 µM.

`C(=C\c1ccccc1)/CN1CCN([C@@H](c2ccccc2)c2nnnn2CCC(c2ccccc2)c2ccccc2)CC1` (racemic) [Compound 27, 1-{[1-(3,3-diphenylpropyl)-1H-tetrazol-5-yl]phenylmethyl}-4-(3-phenylallyl)piperazine]: the IC50 (100 μM or less list) was at most 100 µM.

These data come from US7514438B2, “Melanin concentrating hormone receptor antagonist” (Amgen, Inc., priority 2003, dated 2009).
